Test results as given in the supplement of paper PMC10307832.

Key:
Assay in all cases: relative viability (nuclei count vs DMSO), 5 days (fraction); higher = more cells survive
PAC-1 + Trametinib = compound: C=CCc1cccc(/C=N/NC(=O)CN2CCN(Cc3ccccc3)CC2)c1O [PAC-1] + CC(=O)Nc1cccc(-n2c(=O)n(C3CC3)c(=O)c3c(Nc4ccc(I)cc4F)n(C)c(=O)c(C)c32)c1 [Trametinib] (partner 0.02 µM)
Method in brief: (§1)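 Relative viability is defined as nuclei in treated wells over nuclei in vehicle wells. Duplicate plates were run and medians reported. Lung cancer cell lines in 1536-well plates were dosed by pin tool one day after seeding, with one drug or with a fixed anchor-drug dose plus five library-drug doses (not always all listed) in √10 steps, and nuclei were counted after 5 days.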

BMX-IN-1 + Navitoclax = compound: C=CC(=O)Nc1cc(-n2c(=O)ccc3cnc4ccc(-c5ccc(NS(C)(=O)=O)cc5)cc4c32)ccc1C [BMX-IN-1] + CC1(C)CCC(c2ccc(Cl)cc2)=C(CN2CCN(c3ccc(C(=O)NS(=O)(=O)c4ccc(N[C@H](CCN5CCOCC5)CSc5ccccc5)c(S(=O)(=O)C(F)(F)F)c4)cc3)CC2)C1 [Navitoclax] (partner 0.5 µM)
Method in brief: as §1

BMX-IN-1 + Alpelisib = compound: C=CC(=O)Nc1cc(-n2c(=O)ccc3cnc4ccc(-c5ccc(NS(C)(=O)=O)cc5)cc4c32)ccc1C [BMX-IN-1] + Cc1nc(NC(=O)N2CCC[C@H]2C(N)=O)sc1-c1ccnc(C(C)(C)C(F)(F)F)c1 [Alpelisib] (partner 2 µM)
Method in brief: as §1

PAC-1 + Dasatinib = compound: C=CCc1cccc(/C=N/NC(=O)CN2CCN(Cc3ccccc3)CC2)c1O [PAC-1] + Cc1nc(Nc2ncc(C(=O)Nc3c(C)cccc3Cl)s2)cc(N2CCN(CCO)CC2)n1 [Dasatinib] (partner 0.075 µM)
Method in brief: as §1

BMX-IN-1 + Foretinib = compound: C=CC(=O)Nc1cc(-n2c(=O)ccc3cnc4ccc(-c5ccc(NS(C)(=O)=O)cc5)cc4c32)ccc1C [BMX-IN-1] + COc1cc2c(Oc3ccc(NC(=O)C4(C(=O)Nc5ccc(F)cc5)CC4)cc3F)ccnc2cc1OCCCN1CCOCC1 [Foretinib] (partner 0.25 µM)
Method in brief: as §1

| Cell Line | relative viability (PAC-1 + Trametinib; first compound 0.02 µM) | relative viability (PAC-1 + Trametinib; first compound 0.06325 µM) | relative viability (PAC-1 + Trametinib; first compound 0.2 µM) | relative viability (PAC-1 + Trametinib; first compound 2 µM) | relative viability (BMX-IN-1 + Navitoclax; first compound 0.02 µM) | relative viability (BMX-IN-1 + Navitoclax; first compound 0.2 µM) | relative viability (BMX-IN-1 + Navitoclax; first compound 0.6325 µM) | relative viability (BMX-IN-1 + Navitoclax; first compound 2 µM) | relative viability (BMX-IN-1 + Alpelisib; first compound 0.02 µM) | relative viability (BMX-IN-1 + Alpelisib; first compound 0.2 µM) | relative viability (BMX-IN-1 + Alpelisib; first compound 0.6325 µM) | relative viability (BMX-IN-1 + Alpelisib; first compound 2 µM) | relative viability (PAC-1 + Dasatinib; first compound 0.02 µM) | relative viability (PAC-1 + Dasatinib; first compound 0.06325 µM) | relative viability (PAC-1 + Dasatinib; first compound 0.2 µM) | relative viability (PAC-1 + Dasatinib; first compound 2 µM) | relative viability (BMX-IN-1 + Foretinib; first compound 0.02 µM) | relative viability (BMX-IN-1 + Foretinib; first compound 0.2 µM) | relative viability (BMX-IN-1 + Foretinib; first compound 0.6325 µM) | relative viability (BMX-IN-1 + Foretinib; first compound 2 µM) |
| --- | --- | --- | --- | --- | --- | --- | --- | --- | --- | --- | --- | --- | --- | --- | --- | --- | --- | --- | --- | --- |
| NCI-H2405 | 0.684 | 0.688 | 0.667 | 0.73 | 0.957 | 0.846 | 0.915 | 0.836 | 0.816 | 0.755 | 0.747 | 0.766 | 0.173 | 0.221 | 0.207 | 0.176 | 1.04 | 1.1 | 1.11 | 1.03 |
| EBC-1 |  |  |  |  | 0.425 | 0.341 | 0.434 | 0.329 | 0.701 | 0.698 | 1.01 | 0.812 |  |  |  |  | 0.0974 | 0.114 | 0.144 | 0.101 |
| NCI-H1734 | 0.692 | 0.774 | 0.644 | 0.644 | 1.01 | 0.907 | 0.953 | 0.949 | 0.668 | 0.717 | 0.783 | 0.652 | 0.361 | 0.521 | 0.397 | 0.51 | 1.01 | 0.954 | 1.08 | 0.796 |
| NCI-H2087 | 0.184 | 0.227 | 0.236 | 0.244 | 1.03 | 1.18 | 1.01 | 1.08 | 1.12 | 1.28 | 1.32 | 1.24 | 0.915 | 0.848 | 0.798 | 0.78 | 1.25 | 1.12 | 1.37 | 1.26 |
| NCI-H1563 |  |  |  |  |  |  |  |  | 0.997 | 0.902 | 0.904 | 0.893 | 0.446 | 0.431 | 0.44 | 0.495 | 0.922 | 0.956 | 0.914 | 0.906 |
| SW 900 |  | 0.8 | 0.686 | 0.817 |  |  |  |  |  |  |  |  | 0.766 | 0.467 | 0.435 | 0.927 | 0.815 | 0.944 | 0.757 | 0.802 |
| A549 |  |  |  |  | 1.5 | 1.44 | 1.37 | 1.17 | 0.94 | 0.716 | 0.813 | 0.762 |  |  |  |  | 1.14 | 0.971 | 1.2 | 0.982 |
| NCI-H1793 | 0.363 | 0.423 | 0.39 | 0.405 | 0.454 | 0.363 | 0.483 | 0.38 | 1.14 | 0.873 | 0.665 | 0.563 | 0.373 | 0.373 | 0.364 | 0.412 | 0.856 | 0.856 | 0.656 | 0.699 |
| EKVX | 0.369 | 0.314 | 0.314 | 0.35 | 0.979 | 1.13 | 0.966 | 1 | 0.942 | 0.965 | 0.951 | 0.828 | 0.587 | 0.606 | 0.569 | 0.515 | 0.784 | 0.902 | 0.965 | 0.893 |
| NCI-H2126 | 0.548 | 0.535 | 0.563 | 0.55 | 0.836 | 0.945 | 0.876 | 0.907 | 0.763 | 0.748 | 0.827 | 0.77 | 0.615 | 0.584 | 0.642 | 0.615 | 1.15 | 1.21 | 1.32 | 1.25 |
| NCI-H1993 | 0.446 | 0.534 | 0.623 | 0.583 | 1.07 | 0.875 |  | 0.958 | 0.811 | 0.752 |  | 0.668 | 0.65 | 0.611 | 0.421 | 0.483 | 0.882 | 0.816 | 0.731 | 0.755 |
| EPLC-272H | 0.251 | 0.322 | 0.301 | 0.28 | 1.25 | 1.22 | 1.08 | 1.18 | 0.973 | 1.15 | 1.08 | 0.94 | 0.447 | 0.365 | 0.387 | 0.268 | 0.851 | 0.759 | 0.622 | 0.592 |
| LU99A | 0.542 | 0.475 | 0.539 | 0.564 | 0.897 | 0.885 | 0.857 | 0.833 | 0.482 | 0.659 | 0.526 | 0.532 | 0.549 | 0.579 | 0.498 | 0.505 | 0.828 | 0.776 | 0.842 | 0.817 |
| NCI-H1299 |  |  |  |  | 1.08 | 1.05 | 1.05 | 1.06 | 1.14 | 1.17 | 1.1 | 1.16 |  |  |  |  | 1.12 | 1.06 | 1.16 | 1.06 |
| HCC-78 | 0.725 | 0.725 | 0.849 | 0.782 | 0.859 | 0.851 | 1 | 0.863 | 0.355 | 0.319 | 0.391 | 0.175 | 0.335 | 0.331 | 0.404 | 0.394 | 0.626 | 0.544 | 0.587 | 0.545 |
